Measured values reported in ChEMBL document CHEMBL3886864, “Heterocyclic resorcinol derivatives, preparation of same and cosmetic uses thereof” (2016).

molecular target: T1, Polyphenol oxidase 1 (Agaricus bisporus, UniProt Q00024); assay: Inhibition Assay: Reader: Synergy HT program: tyrosinase 280-490 kinetics: kinetics over 45 minutes, reading at t=10 minutes, Tests in transparent 96-well plates, Phosphate buffer (pH 6.8), Enzyme: mushroom tyrosinase (T-3824, Sigma), Substrate: L-tyrosine (T-3754, Sigma), Positive control: Kojic acid (KA) (60890, Fluka) (reference inhibitor). Reference Molecules for the Test: Kojic acid: …
T1 sequence (Q00024 whole entry): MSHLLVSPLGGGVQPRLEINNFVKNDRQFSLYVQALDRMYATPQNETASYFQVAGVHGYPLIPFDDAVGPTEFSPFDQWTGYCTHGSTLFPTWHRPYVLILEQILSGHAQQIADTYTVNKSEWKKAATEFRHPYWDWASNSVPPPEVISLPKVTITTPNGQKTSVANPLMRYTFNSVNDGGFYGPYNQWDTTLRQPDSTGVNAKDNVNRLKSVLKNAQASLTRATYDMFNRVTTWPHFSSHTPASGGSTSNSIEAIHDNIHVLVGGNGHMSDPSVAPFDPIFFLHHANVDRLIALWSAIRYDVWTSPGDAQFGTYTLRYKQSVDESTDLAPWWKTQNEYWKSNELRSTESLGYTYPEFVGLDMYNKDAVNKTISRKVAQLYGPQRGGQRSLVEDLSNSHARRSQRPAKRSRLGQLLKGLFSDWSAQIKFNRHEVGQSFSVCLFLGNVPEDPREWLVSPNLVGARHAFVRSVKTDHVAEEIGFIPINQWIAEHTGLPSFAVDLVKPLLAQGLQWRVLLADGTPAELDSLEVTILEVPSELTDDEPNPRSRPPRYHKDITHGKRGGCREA

| Compound | IC50 [nM] |
| --- | --- |
| CCCCc1ccc(O)cc1O [RUCINOL] | 1000 |
| CC(c1nccs1)c1ccc(O)cc1O (stereo unspecified) | 1500 |
| CC(c1cccs1)c1ccc(O)cc1O (stereo unspecified) | 90 |

Other lines, results leading:

| IC50 [nM] | Compound |
| --- | --- |
| 80 | CC(c1ccsc1)c1ccc(O)cc1O (stereo unspecified) |
| 400 | CC(c1ccccn1)c1ccc(O)cc1O (stereo unspecified) |
| 200 | CC(c1cccnc1)c1ccc(O)cc1O (stereo unspecified) |
